According to patent publication US20220125765A1, “PHARMACEUTICAL COMBINATIONS COMPRISING MEBENDAZOLE AND A STRONG OR MODERATE CYP1A2 INHIBITOR” (ZEPHAPHARM LTD, priority 2019, published 2022):
Read-outs that look alike come from different tables or passages of the source.

How the values were obtained:
[1] = system: human cryopreserved hepatocytes
Experimental: (§1) The amount of test compound remaining at each time point was analysed by LC-MS/MS. Appropriate control compounds were also incubated.
(§2) The final incubation volume was 500 μL. Appropriate control compounds were included, alongside appropriate vehicle control.
(§3) The reactions were stopped by transferring 50 μL of incubate to 100 μL acetonitrile containing internal standard at the appropriate time points (0, 5, 10, 20, 40 and 60 min). The termination plates were centrifuged at 2500 rpm at 4° C. for 30 min to precipitate the protein.

in vitro = settings: human, cryopreserved hepatocytes, probe mebendazole 1 µM (intrinsic clearance)
Experimental: as §1, §2, §3

[2] = system: human cryopreserved hepatocytes; settings: for reduction of metabolism of mebendazole: initial experiments
Experimental: as §1, §2, §3

CYP1A2 = CYP1A2 (Homo sapiens, UniProt P05177); settings: cited from earlier work
[3] = system: human cryopreserved hepatocytes; remark: listed apart in the source
Experimental: (§4) Mebendazole (1 μM) was incubated with cryopreserved human hepatocytes for 60 min in the absence and presence of cimetidine at 30, 100 and 300 μM) and thiabendazole at 10, 30 and 100 μM and samples taken at the required time points. The amount of test compound remaining at each time point was analysed by LC-MS/MS. Appropriate control compounds were also incubated along with ethoxycoumarin, which was incubated in the absence and presence of cimetidine and thiabendazole.
(§5) The final incubation volume was 500 μL. Two control compounds were included, alongside appropriate vehicle control. A positive control compound, ethoxycoumarin, for CYP1A2 was included. The positive control compound was incubated without inhibitor and in the presence of each inhibitor. The reactions were stopped by transferring 50 μL of incubate to 100 μL acetonitrile containing internal standard at the appropriate time points (0, 5, 10, 20, 40 and 60 min). The termination plates were centrifuged at 2500 rpm at 4° C. for 30 min to precipitate the protein.

[4] = Stability in human liver microsomes without and with cimetidine or furafylline (Example 4); type: in vitro ADME; settings: human liver microsomes, largest effect over concentrations tested
Experimental: A minus cofactor control incubation was included for each compound tested where 0.1 M phosphate buffer pH 7.4 was added instead of NADPH (minus NADPH). […] The samples were analysed for mebendazole or phenacetin using LC-MS/MS.
A minus cofactor control incubation was included for each compound tested where 0.1 M phosphate buffer pH 7.4 was added instead of cofactor (minus NADPH). […] The samples were analysed for mebendazole or phenacetin using LC-MS/MS.

[5] = system: human cryopreserved hepatocytes; test: Stability in human cryopreserved hepatocytes without and with cimetidine or thiabendazole (Example 6); settings: human hepatocytes, largest effect over concentrations tested
Experimental: as §4, §5

[6] = system: human cryopreserved hepatocytes; test: Stability in human cryopreserved hepatocytes without and with cimetidine or furafylline (Example 5); type: in vitro ADME; settings: human hepatocytes, largest effect over concentrations tested
Experimental: The final incubation volume was 500 μL. Two control compounds were included with each species, alongside appropriate vehicle control.
The samples were analysed for mebendazole or ethoxycoumarin using LC-MS/MS.
The final incubation volume was 500 μL.
A positive control compound, ethoxycoumarin, for CYP1A2 was included. […] The samples were analysed for mebendazole or ethoxycoumarin using LC-MS/MS.

human BCRP transporter = human BCRP transporter (Homo sapiens, UniProt Q9UNQ0); settings: Caco-2
human BCRP transporter, sequence (Q9UNQ0 whole entry): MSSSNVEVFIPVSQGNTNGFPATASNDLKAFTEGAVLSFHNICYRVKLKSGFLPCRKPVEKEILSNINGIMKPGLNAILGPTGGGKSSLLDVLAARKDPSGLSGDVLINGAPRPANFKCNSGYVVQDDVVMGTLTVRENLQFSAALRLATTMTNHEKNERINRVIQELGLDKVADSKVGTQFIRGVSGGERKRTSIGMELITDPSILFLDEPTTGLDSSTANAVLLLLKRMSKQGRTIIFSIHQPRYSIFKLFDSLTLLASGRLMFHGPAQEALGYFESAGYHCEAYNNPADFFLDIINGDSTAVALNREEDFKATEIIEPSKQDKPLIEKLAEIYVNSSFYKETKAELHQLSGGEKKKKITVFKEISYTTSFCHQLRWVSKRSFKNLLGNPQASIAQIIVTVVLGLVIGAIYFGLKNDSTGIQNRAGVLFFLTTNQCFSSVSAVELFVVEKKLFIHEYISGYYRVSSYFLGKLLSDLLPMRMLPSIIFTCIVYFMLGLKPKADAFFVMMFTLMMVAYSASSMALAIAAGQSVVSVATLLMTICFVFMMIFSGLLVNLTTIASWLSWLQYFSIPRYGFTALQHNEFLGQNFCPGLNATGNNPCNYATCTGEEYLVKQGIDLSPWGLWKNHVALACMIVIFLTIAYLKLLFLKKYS
Excerpt: Bidirectional apparent permeability of test compound was quantified by LC-MS/MS and used to determine an efflux ratio.

CYP1A2, sequence (P05177 whole entry): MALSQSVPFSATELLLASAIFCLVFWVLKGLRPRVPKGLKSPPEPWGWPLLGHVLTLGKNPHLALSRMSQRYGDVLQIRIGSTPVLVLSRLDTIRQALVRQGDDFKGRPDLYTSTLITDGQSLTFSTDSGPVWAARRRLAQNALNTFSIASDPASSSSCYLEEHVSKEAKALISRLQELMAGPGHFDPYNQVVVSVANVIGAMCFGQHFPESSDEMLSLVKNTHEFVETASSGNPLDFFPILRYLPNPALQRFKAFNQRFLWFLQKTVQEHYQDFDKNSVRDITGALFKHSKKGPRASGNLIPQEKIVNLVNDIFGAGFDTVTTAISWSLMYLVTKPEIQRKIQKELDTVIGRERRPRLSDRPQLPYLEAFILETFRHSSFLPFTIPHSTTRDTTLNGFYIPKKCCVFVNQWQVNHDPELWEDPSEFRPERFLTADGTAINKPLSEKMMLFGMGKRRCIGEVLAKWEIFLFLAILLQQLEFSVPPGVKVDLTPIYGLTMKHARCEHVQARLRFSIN

## Cc1cccc(C)c1OCC(C)N (centres unmarked) [Mexiletine]
[1]; mexiletine 10 to 300 μM, maximum as seen at 30 μM
  reduction of metabolism of mebendazole: up to 7.8 fold
In vitro
  inhibition at 30 µM: 87%
[2]; at 10 μM mexiletine
  reduction of metabolism of mebendazole: 2.7 fold

## c1ccc2[nH]c(-c3cscn3)nc2c1 [Thiabendazole]
CYP1A2; read-out: IC50 value for CYP1A2 inhibition
  IC50: 830 nM
CYP1A2; read-out: inhibition constant (Ki) value for CYP1A2 inhibition
  Ki: 1540 nM
[3]
  decrease of mebendazole metabolism in presence of the inhibitor: 6.4 fold
  inhibition of intrinsic clearance of mebendazole: 84%

## COCCCC/C(=N\OCCN)c1ccc(C(F)(F)F)cc1 [Fluvoxamine]
[1]; fluvoxamine 10 to 300 μM, maximum as seen at 10 μM
  reduction of metabolism of mebendazole: up to 20.2 fold
In vitro
  inhibition at 10 µM: 95%
[2]; at 30 μM fluvoxamine
  reduction of metabolism of mebendazole: 2.3 fold

## CN/C(=N/CCSCc1nc[nH]c1C)NC#N [Cimetidine]
[4]
  inhibition of intrinsic clearance of mebendazole: 32%
[5]
  decrease of mebendazole metabolism in presence of the inhibitor: 1.2 fold
  inhibition of intrinsic clearance of mebendazole: 19%
[2]; in the presence of cimetidine (30-300 μM)
  effect on metabolism of mebendazole: not decreased
[6]
  decrease of mebendazole metabolism in presence of the inhibitor: 1.3 fold
  inhibition of intrinsic clearance of mebendazole: 25%

## C[C@]12CC[C@@H]3c4ccc(OS(=O)(=O)O)cc4CC[C@H]3[C@@H]1CCC2=O [Estrone-3-sulfate]
Human BCRP transporter
  efflux ratio (ER) of positive control substrate: 128
